Data as given in patent publication US9770421B2, “Uses for idebenone and related benzoquinones in metabolic disorders and other PPAR α/γ related diseases and conditions” (INDANIO BIOSCIENCE INC., priority 2013, dated 2017).
pEC50: −log10 of the molar value. “Also recorded” adds a separate entry of the source.

Columns and labels:
[1] = biological target: T1, hPPARδ/β (Homo sapiens, UniProt Q03181); assay: HEK293 cell culture luciferase reporter assay, hPPARδ/β; settings: read-out: EC50 hPPARδ/β; HEK293, GAL4-hPPARδ/β LBD, luciferase
T1 sequence (Q03181 143-441): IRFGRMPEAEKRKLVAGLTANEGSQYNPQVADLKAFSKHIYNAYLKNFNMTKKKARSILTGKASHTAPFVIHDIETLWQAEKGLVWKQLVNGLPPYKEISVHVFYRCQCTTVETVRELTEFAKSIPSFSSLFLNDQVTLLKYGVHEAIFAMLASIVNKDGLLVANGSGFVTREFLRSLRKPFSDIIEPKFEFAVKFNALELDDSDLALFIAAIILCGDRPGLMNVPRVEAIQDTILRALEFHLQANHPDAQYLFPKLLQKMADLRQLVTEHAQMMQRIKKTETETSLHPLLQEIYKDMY

[2] = biological target: T2, hPPARγ (Homo sapiens, UniProt P37231); assay: PPARγ ligand trap (LT) zebrafish GFP reporter screen/assay; type: in vivo; design: pLT PPARα (aa 178-468) and pLT PPAR γ (aa 188-477) lines; expressed in transfected cells; host or cells: transgenic zebrafish embryos (heat-induced ligand-trap line); settings: transgenic embryos, 48 hpf images
T2 sequence (P37231 188-477 isoform P37231-2): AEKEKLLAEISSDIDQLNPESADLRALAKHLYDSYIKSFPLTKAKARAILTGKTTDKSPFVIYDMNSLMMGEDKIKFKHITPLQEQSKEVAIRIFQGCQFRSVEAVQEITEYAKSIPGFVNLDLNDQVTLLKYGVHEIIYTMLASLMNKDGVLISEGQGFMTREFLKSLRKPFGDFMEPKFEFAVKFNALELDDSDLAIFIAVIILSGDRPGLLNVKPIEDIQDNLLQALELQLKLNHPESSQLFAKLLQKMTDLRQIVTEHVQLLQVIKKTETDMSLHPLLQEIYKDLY
Experimental: Digested DNA was adjusted with 0.1% phenol red. 4.6 nl of DNA solution was injected into the blastomeres of early one-cell stage embryos.
(§1) F0 fish were crossed with WT fish to identify germ-line transformed animals, as determined by agonist treatments and GFP expression. F1 progeny showing strong and consistent GFP responses were selected for F2 homozygote production. To avoid reporter GFP silencing of stable transgenic LT lines, homozygous fish showing strong and consistent GFP responses were selected for continued propagation of next generations.
PPARγ ligand trap zebrafish screens were performed under optimized conditions in 96-well format using the ImageXpress Velos Laser Scanning Cytometer. 1 or 2 dpf embryos were heat induced (28→37° C.) for 30 minutes, de-chorionated and then arrayed in 96-well plates (5 per well). Embryo water (0.075 g/L NaHCO3, 0.018 g/L Sea salt, 0.0084 g/L CaSO42H2O) was removed and 200 μl of fresh embryo water/well including dissolved small molecules or solvent was added.
Also included was the CoQ10 analog idebenone.

[3] = biological target: T3, PPARα (Homo sapiens, UniProt Q07869); assay: PPARα ligand trap zebrafish GFP reporter assay; type: in vivo; design: pLT PPARα (aa 178-468) and pLT PPAR γ (aa 188-477) lines; expressed in transfected cells; host or cells: transgenic zebrafish embryos (ligand-trap line); settings: transgenic embryos, 48 hpf
T3 sequence (Q07869 178-468): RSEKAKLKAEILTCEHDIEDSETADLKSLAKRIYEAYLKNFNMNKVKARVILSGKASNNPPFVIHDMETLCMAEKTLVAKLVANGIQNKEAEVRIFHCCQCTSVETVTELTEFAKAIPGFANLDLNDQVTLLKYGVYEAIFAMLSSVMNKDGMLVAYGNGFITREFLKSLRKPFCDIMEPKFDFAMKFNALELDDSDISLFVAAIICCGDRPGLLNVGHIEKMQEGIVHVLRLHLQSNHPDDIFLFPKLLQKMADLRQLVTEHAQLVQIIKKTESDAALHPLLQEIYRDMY
Experimental: Zebrafish were maintained at 28.5° C. on a 14/10 hour light/dark cycle and staged according to hours (h) or days (d) postfertilization. To generate pLT PPARα (aa 178-468) and pLT PPAR γ (aa 188-477) lines, plasmids were pre-digested with I-SceI (0.8 μg DNA, 1 μl I-SceI (New England Biolabs) 2 μl 10×I-SceI buffer, 1 μl BSA) for 20 min at 37° C. Digested DNA was adjusted with 0.1% phenol red. 4.6 nl of DNA solution was injected into the blastomeres of early one-cell stage embryos.
as §1
PPARγ ligand trap zebrafish screens were performed under optimized conditions in 96-well format using the ImageXpress Velos Laser Scanning Cytometer. 1 or 2 dpf embryos were heat induced (28→37° C.) for 30 minutes, de-chorionated and then arrayed in 96-well plates (5 per well). […] Embryos were incubated at 28° C. for 14 h, anesthetized with Tricaine (Sigma, Cat. # A-5040) and then analyzed for GFP fluorescence using the ImageXpress Velos Laser Scanning Cytometer.

[4] = biological target: T4, PPARδ/β (Homo sapiens, UniProt Q03181); assay: PPARδ/β ligand trap transgenic zebrafish line; settings: in vivo
T4 construct: expressed in transfected cells; host or cells: transgenic zebrafish embryos (ligand-trap line)
T4 sequence (Q03181 211-439 limits assumed): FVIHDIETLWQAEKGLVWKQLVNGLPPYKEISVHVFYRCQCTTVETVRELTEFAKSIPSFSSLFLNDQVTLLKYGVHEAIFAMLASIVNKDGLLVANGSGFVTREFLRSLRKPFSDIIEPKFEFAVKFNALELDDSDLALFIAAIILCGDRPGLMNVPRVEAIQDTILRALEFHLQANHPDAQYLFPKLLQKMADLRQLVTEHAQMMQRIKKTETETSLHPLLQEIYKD
Experimental: To test for specificity, idebenone and CoQ10 were also tested on PPARα, and PPARδ/β receptors in vivo and in vitro. […] The same relative responses were obtained with HEK 293 cells grown in culture and transfected with PPAR expression vectors and luciferase reporters (FIG. 5).

[5] = biological target: T5, human PPARγ LBD (residues 206-477) (Homo sapiens, UniProt P37231); assay: Stargazer thermostabilization assay; type: binding; settings: 0.2 mg/ml PPARγ LBD, heated to 80° C.
T5 construct: human PPARγ LBD (residues 206-477), expressed in pRSET; His tag (implied by Ni-NTA purification and the pRSET vector); made in house; host or cells: E. coli BL21 codon plus (pRSET)
T5 sequence (P37231 206-477 isoform P37231-2): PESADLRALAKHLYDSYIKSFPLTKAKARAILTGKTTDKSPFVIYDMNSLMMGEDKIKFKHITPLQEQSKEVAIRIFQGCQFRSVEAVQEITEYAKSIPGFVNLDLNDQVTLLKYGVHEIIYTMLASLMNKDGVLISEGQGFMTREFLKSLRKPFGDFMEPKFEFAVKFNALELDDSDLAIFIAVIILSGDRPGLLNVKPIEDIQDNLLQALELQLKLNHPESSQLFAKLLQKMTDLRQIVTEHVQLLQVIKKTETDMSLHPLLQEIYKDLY

[6] = system: GFP-expressing leukocytes recruited in response to CuSO4; assay: Zebrafish inflammation assay (CuSO4); type: in vivo; settings: 10 μM CuSO4, 55 hpf embryos
Experimental: Assay was performed as described in [47]. Fifteen dechorionated 55 hpf (hours post fertilization) embryos were transferred in each well of 6-well plates in 6 ml of embryo water. Idebenone was added at increasing concentrations (0.25, 0.75, 1.5, 3 and 5 μM). Embryos were incubated in the dark for 1 hr at 28 C, followed by a second 40 min incubation with copper sulfate (CuSO4) at a final concentration of 10 μM at 28 C in the dark. Embryos were then transferred to Eppendorf tubes and fixed in 4% paraformaldehyde in 1×PBS overnight at 4 C in the dark. Numbers of GFP+ cells were counted along the lateral line/neuromast clusters.
Previous studies have shown that PPAR agonists have anti-inflammatory properties, and can be used to treat a variety of inflammatory responses. To test if this is also true for idebenone, we used a zebrafish model of inflammation. Exposure of fish larvae to copper sulfate causes non-invasive damage to neuromast cells, which form external clusters along the lateral midline. This inflammation can be visualized via the recruitment of GFP-expressing leukocytes. As expected, this recruitment of GFP positive cells could be alleviated by addition of the known anti-inflammatory agent ibuprofen (FIG. 11).

[7] = system: C57Bl/6 db/db mice; assay: db/db mouse study (NAFLD features); type: in vivo; settings: 10 mpk in food, 3 weeks, versus vehicle
Experimental: Db/db study: Forty male C57Bl/6 db/db mice (called B6.BKS(D)-Lepr db/J) were ordered from Jackson Laboratories (#000697) at 7 weeks of age. Mice were housed individually with free access to food (2016 Teklad Global 16% Protein Rodent Diet) and water on a 14 hour light/dark cycle (6 a.m. to 8 p.m. light). […] Food was exchanged on a daily bases. Harlan corn cob bedding was provided and was changed every week or as needed. Following a 1 week acclimation, 32 mice were chosen based on desired body weight range. Remaining mice were euthanized. Mice were randomized by body weight into four treatment groups (n=8) by body weight. Dosing occurred for 21 days. Mice were euthanized by CO2 euthanasia and livers were fixed in neutral buffered formalin (NBF) for 24 h, followed by a one day fixation in 30% Sucrose and 10% Sucrose. Oil O Red staining was performed through the Pathology Research Program at the University Health Network in Toronto [46]. [table] 100 mg of db/db livers were homogenized in RIPA buffer and protein concentration was quantified using a BCA protein assay kit (Cell signalling #7780) followed by measurement of ‘Thiobarbituric Acid Reactive Substances’ (TBARS) using a TBARS assay kit (Cayman Chemicals #10009055). Total RNA was extracted from 100 mg of db/db livers using RNA STAT-60 (Tel-Test, Inc.), treated with DNase I (RNase-free, Roche), and reverse transcribed into cDNA with random hexamers using the High Capacity Reverse transcription system (Applied Biosystems, ABI). Primers used are shown below and were validated as previously described. Real-time QPCR reactions were performed on an ABI 7900 in 384-well plates containing 12.5 ng cDNA, 150 nM of each primer, and 5 μl 2×SYBR Green PCR Master Mix (ABI) in a 10 μl total volume. Relative mRNA levels were calculated using the comparative Ct method normalized to cyclophilin mRNA.

## O=C(O)COc1ccc(SCC=C(c2ccc(Br)cc2)c2ccc(Br)cc2)cc1Cl [CAY10592]
[1]
  pEC50: 7.89

## COC1=C(OC)C(=O)C(C/C=C(\C)CCC=C(C)C)=C(C)C1=O [CoQ2, coenzyme Q2]
[2]
  GFP reporter activation in LT-PPARγ embryos: activity similar to idebenone and CoQ10

## COC1=C(OC)C(=O)C(C/C=C(\C)CC/C=C(\C)CC/C=C(\C)CC/C=C(\C)CC/C=C(\C)CC/C=C(\C)CC/C=C(\C)CC/C=C(\C)CC/C=C(\C)CCC=C(C)C)=C(C)C1=O [CoQ10, coenzyme Q10]
[2]
  GFP reporter activation in LT-PPARγ embryos: dual agonists for PPARα and PPARγ
[3]
  GFP response of PPARα LT line: robust response; also recorded: dual agonists for PPARα and PPARγ
[4]
  Response of PPARδ/β transgenic line: no response

## O=C1C=CC(=O)C=C1 [1,4-benzoquinone]
[2]
  GFP reporter activation in LT-PPARγ embryos: did not induce a detectable response
[2]; listed as benzoquinone
  GFP reporter activation in LT-PPARγ embryos: no reporter activation

## COC1=C(OC)C(=O)C(C)=CC1=O [CoQ0, Coenzyme Q0]
[2]
  GFP reporter activation in LT-PPARγ embryos: relatively weak activity; also recorded: weak PPARγ activation
[5]
  Shift of thermal denaturation transition temperature: 8.5 °C

## CC(C)Cc1ccc(C(C)C(=O)O)cc1 (stereo not shown) [Ibuprofen]
[6]
  Recruitment of GFP positive leukocytes (anti-inflammatory activity): alleviated

## CN(CCOc1ccc(CC2SC(=O)NC2=O)cc1)c1ccccn1 (stereo not shown) [rosiglitazone]
[7]
  Gain in liver weight: 8.6%

## COC1=C(OC)C(=O)C(CC=C(C)C)=C(C)C1=O [CoQ1, coenzyme Q1]
[2]
  GFP reporter activation in LT-PPARγ embryos: relatively weak activity; also recorded: weak PPARγ activation

## COC1=C(OC)C(=O)C(CCCCCCCCCC[P+](c2ccccc2)(c2ccccc2)c2ccccc2)=C(C)C1=O [MitoQ, 10-[4,5-dimethoxy-2-methyl-3,6-dioxo-1,4-cycloheexadienl-yl]decyl triphenylphosphonium methanesulfonate]
[2]
  GFP reporter activation in LT-PPARγ embryos: failed to activate; also recorded: no activation
